Reference: the supplement of paper PMC10949913

Experiments:
Test in all cases: area under concentration-response curve (viability) (AUC (a.u.)); higher = less active
Conditions in all cases: 48 h
CU-ACC1 = test system: CU-ACC1
Method in brief: (§1)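 For each of three adrenocortical carcinoma cell lines, 500–1,000 cells/well were placed in 5 µL medium in 1,536-well plates. A 23 nL volume of every library compound was added at 11 concentrations. Following 48 h, a 15-minute room-temperature CellTiter-Glo step preceded luminescence reading, with signals normalised per plate to vehicle and empty-well controls. AC50 and area under the curve were derived by curve fitting, retaining only inhibitory or non-responding curve classes.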

NCI-H295R = test system: NCI-H295R
Method in brief: as §1

CU-ACC2 = test system: CU-ACC2
Method in brief: as §1

Compound	area under concentration-response curve (CU-ACC1)	area under concentration-response curve (NCI-H295R)	area under concentration-response curve (CU-ACC2)
COC(=O)N[C@@H](C)CNc1nccc(-c2cn(C(C)C)nc2-c2cc(Cl)cc(N[S+](C)(=O)[O-])c2F)n1	497	539	566
NC\1=N\C(=O)N(\C=N1)[C@H]2C[C@H](O)[C@@H](CO)O2	500	484	588
CNC(=O)c1ccc(-c2cnc3ncc(Cc4ccc5ncccc5c4)n3n2)cc1F	481	511	520
O=C(CCCc1ccc2cccnc2n1)NCc1cc(-c2ccc(F)c(C(F)(F)F)c2)no1	512	491	615
COc1ccccc1OCC(O)CN1CCN(CC(=O)Nc2c(C)cccc2C)CC1 (stereo not given)	535	569	627
Nc1ccc([S+](N)(=O)[O-])cc1	417	409	415
C=CC(=O)Nc1cc(N2CCN(CC)CC2)ccc1Nc1cc(N(C)C(=O)Nc2c(Cl)c(OC)cc(OC)c2Cl)ncn1	537	495	566
Cc1coc2c1C(=O)C(=O)c1c-2ccc2c1CCCC2(C)C	433	456	479
COCCNCc1ccc(-c2cc3nccc(Oc4ccc(NC(=O)C5(C(=O)Nc6ccc(F)cc6)CC5)cc4F)c3s2)nc1	302	374	414
C[C@@H]1CC2=C(C=C3OCOC3=C2)C(=N\N1C(C)=O)/C4=CC=C(N)C=C4	394	406	398
CC(C)(C)C(=O)Oc1ccc2c(c1)nc(NC(=O)c1cccc([N+](=O)[O-])c1)n2CCCO	506	525	584
CC(C)(CNC(=O)c1cccc(-c2noc(C(F)(F)F)n2)c1)c1coc(-c2ccccc2)n1	558	506	585
CO[C@@H]1[C@H](N(C)C(=O)c2ccccc2)C[C@H]2O[C@]1(C)n1c3ccccc3c3c4c(c5c6ccccc6n2c5c31)C(=O)NC4	522	492	476
O=c1oc2c(O)c(O)cc3c(=O)oc4c(O)c(O)cc1c4c23	482	517	579
CC(C)CC(=O)N[C@H](C(=O)N[C@H](C(=O)N[C@@H](CC(C)C)[C@@H](O)CC(=O)N[C@@H](C)C(=O)N[C@@H](CC(C)C)[C@@H](O)CC(=O)O)C(C)C)C(C)C	537	485	538
CN1CCN2c3ncccc3Cc3ccccc3C2C1 (stereo not given)	494	556	579
CC(C)[C@H](N)C(=O)OCCOC[N]1C=NC2=C1\N=C(N)/NC2=O	449	390	394
CNC(=O)Cn1cc(-c2ccc3c(c2)C(F)CC32NC(=O)N(CC(=O)N(Cc3ccc(F)cc3)[C@@H](C)C(F)(F)F)C2=O)cn1 (stereo not given in full)	517	504	549
COc1cc2c(cc1OC)CC(=O)N(CCCN(C)C[C@H]1Cc3cc(OC)c(OC)cc31)CC2	486	542	601
CN1CCN(c2ccc(OC(F)(F)F)c(Nc3ncc4c(n3)-c3c(c(C(N)=O)nn3CCO)CC4)c2)CC1	498	460	587
CNC(=O)c1c(-c2ccc(F)cc2)oc2cc(N(CCO)[S+](C)(=O)[O-])c(C3CC3)cc12	470	496	580
CCC1(C)CC(=O)NC1=O (stereo not given)	497	551	603
Cc1nnc(C(C)C)n1C1CC2CCC(C1)N2CC[C@H](NC(=O)C1CCC(F)(F)CC1)c1ccccc1 (stereo not given in full)	561	559	533

Compound	area under concentration-response curve (CU-ACC1)	area under concentration-response curve (NCI-H295R)	area under concentration-response curve (CU-ACC2)
CCN1CCN(c2ccc(Nc3cc(N(C)C(=O)Nc4c(Cl)c(OC)cc(OC)c4Cl)ncn3)cc2)CC1	511	479	580
O=C(NCC[S+](=O)([O-])c1ccc(C(F)(F)F)cn1)c1ccc(Cl)cc1	520	544	580
CO[C@@H]1[C@@H](OC(N)=O)[C@@H](O)[C@H](OC2=CC=C3\C(=C(NC(=O)C4=CC=C([O-])C(=C4)CC=C(C)C)/C(=O)OC3=C2C)O)OC1(C)C	535	539	531
Cn1cnc2c(F)c(Nc3ccc(Br)cc3Cl)c(C(=O)NOCCO)cc21	463	500	493
CN(C)N(C)C(=O)[C@@]1(Cc2ccccc2)CCCN(C(=O)[C@@H](Cc2c[nH]c3ccccc23)NC(=O)C(C)(C)N)C1	522	514	525
CC(=O)OCC(=O)[C@@]12OC(C)(C)O[C@@H]1C[C@H]3[C@@H]4C[C@H](F)C/5=C/C(=O)/C=C\[C@]5(C)[C@@]4(F)[C@@H](O)C[C@]23C	439	519	528
CC(=O)O[C@H]1C[C@@H]2CC[C@@H]3[C@H](CC[C@@]4(C)[C@H]3C[C@H]([N+]3(C)CCCCC3)[C@@H]4OC(C)=O)[C@@]2(C)C[C@@H]1N1CCCCC1.[Br-]	562	610	632
CN(CC(=O)N(Cc1ccc(C2CCCCC2)cc1)c1ccc(C(=O)O)c(O)c1)[S+](=O)([O-])c1c(F)c(F)c(F)c(F)c1F	486	536	558
C[C@H]1C[C@H]2[C@@H]3CC\C4=C\C(=O)\C=C/[C@]4(C)[C@H]3C(=O)C[C@]2(C)[C@@]1(O)C(=O)CO	511	488	618
COc1ccccc1N1CCN(CC(O)COc2cccc3ccccc23)CC1 (stereo not given)	458	501	515
CCCCCCCCCCCCCCCCCCCCCCO	538	525	562
NC1=NC=CC2=C1N=C[N]2[C@@H]3\C=C(CO)/[C@@H](O)[C@H]3O	448	403	454
C[C@@H]1CN(Cc2ccc(F)cc2)[C@@H](C)CN1C(=O)c1cc2c(C(=O)C(=O)N(C)C)cn(C)c2cc1Cl	515	552	634
CC(C)(N[S+](=O)([O-])c1ccc2c(Cl)cnc(NC(=N)N)c2c1)C(=O)O	527	570	609
Cc1cccc(C)c1NC(=O)CN1CCCC1=O	486	520	544
O=C(c1cncc(Br)c1)N1CCC(N2CCCC2)CC1	489	528	440
O=C(O)CCn1c2c(c3ccccc31)C[C@H](N[S+](=O)([O-])c1ccc(F)cc1)CC2	445	496	540
Clc1cccc(C(c2ccc3nc[nH]c3c2)n2ccnc2)c1 (stereo not given)	534	491	633
CC(C)(C)Sc1c(CC(C)(C)C(=O)O)n(Cc2ccc(Cl)cc2)c2ccc(OCc3ccc4ccccc4n3)cc12	578	554	624
CCNCc1nc2c(N)nc3ccccc3c2n1CC(C)(C)O	500	516	556
COc1ccc([C@@H]2Sc3ccccc3N(CCN(C)C)C(=O)[C@@H]2OC(C)=O)cc1	473	533	576
COC(=O)Nc1nc2cc(C(=O)c3cccs3)ccc2[nH]1	496	382	516
